According to PMC6858373 (Scientific Reports, 2019):
Where two headings read alike, the source gives them in different places.

How the values were obtained:
[1] = molecular target: full-length P. pyralis luciferase (Photinus pyralis, UniProt P08659, K549A/L550V/N119G/N50D/S548I); assay type: cell-based; settings: for Luciferase Assay % Lum / Luciferase Assay Z-score / Luciferase Assay % Lum (full-length luciferase counter-screen) / Luciferase Assay Z-score (full-length luciferase counter-screen): CC_NCI screening, normalized to on-plate 0.3% DMSO controls; for Luciferase Assay % Lum: full-length luciferase counter-screen luminescence; for Luciferase Assay Z-score: full-length luciferase counter-screen
full-length P. pyralis luciferase, sequence (P08659 whole entry N50D/N119G/S548I/K549A/L550V, looked up): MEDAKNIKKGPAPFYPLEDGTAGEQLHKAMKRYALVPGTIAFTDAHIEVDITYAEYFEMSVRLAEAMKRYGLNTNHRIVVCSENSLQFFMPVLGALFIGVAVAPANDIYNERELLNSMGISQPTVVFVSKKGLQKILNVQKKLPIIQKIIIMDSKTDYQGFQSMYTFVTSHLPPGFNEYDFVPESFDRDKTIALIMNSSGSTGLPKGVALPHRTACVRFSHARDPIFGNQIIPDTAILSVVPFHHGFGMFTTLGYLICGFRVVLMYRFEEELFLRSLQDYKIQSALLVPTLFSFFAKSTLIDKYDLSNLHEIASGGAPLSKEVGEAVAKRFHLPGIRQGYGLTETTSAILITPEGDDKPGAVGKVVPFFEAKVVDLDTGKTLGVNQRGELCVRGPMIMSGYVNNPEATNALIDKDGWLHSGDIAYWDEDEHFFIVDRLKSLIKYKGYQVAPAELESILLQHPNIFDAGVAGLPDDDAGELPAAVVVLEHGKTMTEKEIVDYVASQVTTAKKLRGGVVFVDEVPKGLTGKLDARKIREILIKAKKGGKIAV

[2] = molecular target: T1, FGF14:Nav1.6 C-tail complex (Homo sapiens, UniProt Q92915+Q9UQD0); assay: Split-luciferase complementation assay (LCA) in Clone V double stable HEK293 cells; assay type: cell-based; settings: for Split Luciferase Assay % Lum Set 1 / Split Luciferase Assay Z-score Set 1: biological replicate Set 1; for Split Luciferase Assay % Lum Set 1 / Split Luciferase Assay %Lum Set 2: normalized to on-plate 0.3% DMSO controls (n=16 per plate); for Split Luciferase Assay %Lum Set 2 / Split Luciferase Assay Z-score Set 2: biological replicate Set 2; for Split Luciferase Assay Z-score Set 1 / Split Luciferase Assay Z-score Set 2: normalized to on-plate 0.3% DMSO controls; for Split Luciferase Assay %Lum Avg: average of Set 1 and Set 2, normalized to 0.3% DMSO controls; for signal-background (S:B) ratio: 50 ng/mL TNF-α vs 0.3% DMSO, n = 16
T1 construct: polymerase chain reaction (PCR) amplification of the FGF14 open reading frame (nt 1–855); C-terminal fragment of Nav1.6 (amino acids 1763–1976) fused with CD4ΔC-tail (amino acids 1–395); expressed in transfected cells
T1 sequence (Q92915 1-252 isoform Q92915-2): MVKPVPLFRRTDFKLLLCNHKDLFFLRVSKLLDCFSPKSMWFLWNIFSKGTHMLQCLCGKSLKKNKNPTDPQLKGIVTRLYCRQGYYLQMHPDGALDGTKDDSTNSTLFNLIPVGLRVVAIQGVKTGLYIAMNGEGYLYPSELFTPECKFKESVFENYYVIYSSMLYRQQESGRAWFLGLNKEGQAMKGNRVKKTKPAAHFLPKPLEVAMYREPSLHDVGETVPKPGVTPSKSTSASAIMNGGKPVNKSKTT
T1 sequence (Q9UQD0 1763-1976 limits assumed): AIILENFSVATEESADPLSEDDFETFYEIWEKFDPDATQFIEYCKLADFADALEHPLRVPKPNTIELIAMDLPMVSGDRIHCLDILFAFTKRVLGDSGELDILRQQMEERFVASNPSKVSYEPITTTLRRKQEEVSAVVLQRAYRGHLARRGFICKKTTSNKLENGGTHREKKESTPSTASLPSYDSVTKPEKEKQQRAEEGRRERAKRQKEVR

[3] = CC_NCI screening, LCA luminescence

CCN(CCO)CCCOc1ccc2c(Nc3cc(CC(=O)Nc4cccc(F)c4)[nH]n3)ncnc2c1 [AZD1152-HQPA]
Luciferase Assay % Lum [1]: 84.20% | Luciferase Assay Z-score [1]: -2.02 | Toxicity Assay % Fluor (Clone V cells; human, 16 h, 30 µM): 93.28% | Toxicity Assay Z-score (Clone V cells; human, 16 h, 30 µM): -0.94 | Split Luciferase Assay % Lum Set 1 [2, 3]: 87.29% | Split Luciferase Assay %Lum Set 2 [2, 3]: 100.91% | Split Luciferase Assay Z-score Set 1 ([2]; CC_NCI screening, LCA): -1.03 | Split Luciferase Assay Z-score Set 2 ([2]; CC_NCI screening, LCA): 0.07 | Split Luciferase Assay %Lum Avg ([2]; CC_NCI screening): 94.10%

C=CCNC1=C2C[C@@H](C)C[C@H](OC)[C@H](O)[C@@H](C)/C=C(\C)[C@H](OC(N)=O)[C@@H](OC)/C=C\C=C(/C)C(=O)NC(=CC1=O)C2=O [Compound 17-AAG]
Luciferase Assay % Lum [1]: 80.45% | Luciferase Assay Z-score [1]: -2.50 | Toxicity Assay % Fluor (Clone V cells): 88.49% | Toxicity Assay Z-score (Clone V cells): -1.61 | Split Luciferase Assay % Lum Set 1 [2, 3]: 45.98% | Split Luciferase Assay %Lum Set 2 [2, 3]: 41.61% | Split Luciferase Assay Z-score Set 1 ([2]; CC_NCI screening, LCA): -4.37 | Split Luciferase Assay Z-score Set 2 ([2]; CC_NCI screening, LCA): -4.75 | Split Luciferase Assay %Lum Avg ([2]; CC_NCI screening): 43.80%

C[C@@H](N)[C@H]1CC[C@H](C(=O)Nc2ccncc2)CC1 [Compound Y-27632]
Luciferase Assay % Lum [1]: 95.76% | Luciferase Assay Z-score [1]: -0.54 | Toxicity Assay % Fluor (Clone V cells): 96.21% | Toxicity Assay Z-score (Clone V cells): -0.53 | Split Luciferase Assay % Lum Set 1 [2, 3]: 76.42% | Split Luciferase Assay %Lum Set 2 [2, 3]: 74.90% | Split Luciferase Assay Z-score Set 1 ([2]; CC_NCI screening, LCA): -1.91 | Split Luciferase Assay Z-score Set 2 ([2]; CC_NCI screening, LCA): -2.04 | Split Luciferase Assay %Lum Avg ([2]; CC_NCI screening): 75.66%

Cl.Cn1c(CCCC(=O)O)nc2cc(N(CCCl)CCCl)ccc21 [Bendamustine hydrochloride]
Luciferase Assay % Lum [1]: 101.61% | Luciferase Assay Z-score [1]: 0.21 | Toxicity Assay % Fluor (Clone V cells): 87.62% | Toxicity Assay Z-score (Clone V cells): -1.73 | Split Luciferase Assay % Lum Set 1 [2, 3]: 111.21% | Split Luciferase Assay %Lum Set 2 [2, 3]: 127.96% | Split Luciferase Assay Z-score Set 1 ([2]; CC_NCI screening, LCA): 0.91 | Split Luciferase Assay Z-score Set 2 ([2]; CC_NCI screening, LCA): 2.27 | Split Luciferase Assay %Lum Avg ([2]; CC_NCI screening): 119.58%

CN1CCN(c2ccc3nc(-c4c(N)c5c(F)cccc5[nH]c4=O)[nH]c3c2)CC1 [CHIR 258]
Luciferase Assay % Lum [1]: 93.31% | Luciferase Assay Z-score [1]: -0.86 | Toxicity Assay % Fluor (Clone V cells; human, 16 h, 30 µM): 81.15% | Toxicity Assay Z-score (Clone V cells; human, 16 h, 30 µM): -2.64 | Split Luciferase Assay % Lum Set 1 [2, 3]: 66.64% | Split Luciferase Assay %Lum Set 2 [2, 3]: 66.58% | Split Luciferase Assay Z-score Set 1 ([2]; CC_NCI screening, LCA): -2.70 | Split Luciferase Assay Z-score Set 2 ([2]; CC_NCI screening, LCA): -2.72 | Split Luciferase Assay %Lum Avg ([2]; CC_NCI screening): 66.61%

Cc1nc2sccn2c(=O)c1CCN1CCC(=C(c2ccccc2)c2ccc(F)cc2)CC1 [Compound R59022]
Luciferase Assay % Lum (full-length luciferase counter-screen) [1]: 55.65% | Luciferase Assay Z-score (full-length luciferase counter-screen) [1]: -5.68 | Toxicity Assay % Fluor (CTB cell viability fluorescence) (Clone V cells): 113.72% | Toxicity Assay Z-score (CTB cell viability) (Clone V cells): 1.92 | Split Luciferase Assay Z-score Set 1 ([2]; CC_NCI screening): -1.91 | Split Luciferase Assay % Lum Set 1 ([2]; CC_NCI screening): 76.42% | Split Luciferase Assay Z-score Set 2 ([2]; CC_NCI screening): -0.10 | Split Luciferase Assay %Lum Set 2 ([2]; CC_NCI screening): 98.83% | Split Luciferase Assay %Lum Avg [2]: 87.63%

Cc1nc2c(c(=O)[nH]1)CSCC2 [DR 2313]
Luciferase Assay % Lum (full-length luciferase counter-screen) [1]: 93.50% | Luciferase Assay Z-score (full-length luciferase counter-screen) [1]: -0.83 | Toxicity Assay % Fluor (CTB cell viability fluorescence) (Clone V cells): 106.28% | Toxicity Assay Z-score (CTB cell viability) (Clone V cells): 0.88 | Split Luciferase Assay Z-score Set 1 ([2]; CC_NCI screening): -1.11 | Split Luciferase Assay % Lum Set 1 ([2]; CC_NCI screening): 86.21% | Split Luciferase Assay Z-score Set 2 ([2]; CC_NCI screening): -0.26 | Split Luciferase Assay %Lum Set 2 ([2]; CC_NCI screening): 96.75% | Split Luciferase Assay %Lum Avg [2]: 91.48%

CC(C)(C)c1nc(-c2cccc(NS(=O)(=O)c3c(F)cccc3F)c2F)c(-c2ccnc(N)n2)s1.CS(=O)(=O)O [Dabrafenib mesylate]
Luciferase Assay % Lum [1]: 100.50% | Luciferase Assay Z-score [1]: 0.06 | Toxicity Assay % Fluor (Clone V cells): 93.50% | Toxicity Assay Z-score (Clone V cells): -0.91 | Split Luciferase Assay % Lum Set 1 [2, 3]: 126.43% | Split Luciferase Assay %Lum Set 2 [2, 3]: 121.72% | Split Luciferase Assay Z-score Set 1 ([2]; CC_NCI screening, LCA): 2.14 | Split Luciferase Assay Z-score Set 2 ([2]; CC_NCI screening, LCA): 1.77 | Split Luciferase Assay %Lum Avg ([2]; CC_NCI screening): 124.07%

O=C(c1ccc(OCCN2CCCCC2)cc1)c1c(-c2ccc(O)cc2)sc2cc(O)ccc12 [Raloxifene]
Luciferase Assay % Lum [1]: 91.29% | Luciferase Assay Z-score [1]: -1.12 | Toxicity Assay % Fluor (Clone V cells; human, 16 h, 30 µM): 90.90% | Toxicity Assay Z-score (Clone V cells; human, 16 h, 30 µM): -1.27 | Split Luciferase Assay % Lum Set 1 [2, 3]: 56.86% | Split Luciferase Assay %Lum Set 2 [2, 3]: 52.02% | Split Luciferase Assay Z-score Set 1 ([2]; CC_NCI screening, LCA): -3.49 | Split Luciferase Assay Z-score Set 2 ([2]; CC_NCI screening, LCA): -3.90 | Split Luciferase Assay %Lum Avg ([2]; CC_NCI screening): 54.44%

O=c1[nH]c(=O)n([C@H]2C[C@H](O)[C@@H](CO)O2)cc1F [Floxuridine, reference compound]
Luciferase Assay % Lum [1]: 100.29% | Luciferase Assay Z-score [1]: 0.04 | Toxicity Assay % Fluor (Clone V cells; human, 16 h, 30 µM): 90.13% | Toxicity Assay Z-score (Clone V cells; human, 16 h, 30 µM): -1.38 | Z-score (LCA primary screening) ([2]; 30 µM, 384-well, average of primary screening (n = 2), vs on-plate 0.3% DMSO): 3.73 | Split Luciferase Assay % Lum Set 1 [2, 3]: 154.69% | Split Luciferase Assay Z-score Set 1 ([2]; CC_NCI screening, LCA): 4.42 | Split Luciferase Assay Z-score Set 2 ([2]; CC_NCI screening, LCA): 3.04 | Split Luciferase Assay %Lum Avg ([2]; CC_NCI screening): 146.01% | EMax (% Luminescence) ([2]; agonists, Clone V cells, 384-well, normalized to DMSO): 146.01 % Luminescence | EC50 ([2]; estimated, 8-point dose response 0.25-30 µM, n = 4 per concentration, library compounds, read-out: EC50): 2460 nM

TNF-α
% maximal luminescence, full-length luciferase (normalized mean and SD) ([1]; TNF-α 50 ng/mL, 96-well plates): 105.7% ± 2.5% | cell viability vs untreated cells (CTB fluorescence) (Clone V cells): no significant difference in cell viability | mean effect relative to that of triciribine [2]: over 2 fold | signal-background (S:B) ratio ([2]; 1 × 10^4 cells per 384-well): 2.05 ± 0.11 X background signal | signal-background (S:B) ratio ([2]; 2 × 10^4 cells per 384-well): 2.26 ± 0.18 X background signal | signal-background (S:B) ratio ([2]; 3 × 10^4 cells per 384-well): 2.60 ± 0.14 X background signal | signal-background (S:B) ratio ([2]; 4 × 10^4 cells per 384-well): 2.12 ± 0.16 X background signal | % luminescence (mean and SD, normalized to DMSO) ([2]; 50 ng/mL TNF-α, Clone V cells, 96-well plates): 210.8% ± 18.6%

Cc1ccc(Nc2nccc(N(C)c3ccc4c(C)n(C)nc4c3)n2)cc1S(N)(=O)=O.Cl [Pazopanib hydrochloride]
Luciferase Assay % Lum [1]: 59.40% | Luciferase Assay Z-score [1]: -5.20 | Toxicity Assay % Fluor (Clone V cells): 92.21% | Toxicity Assay Z-score (Clone V cells): -1.09 | Split Luciferase Assay % Lum Set 1 [2, 3]: 13.37% | Split Luciferase Assay %Lum Set 2 [2, 3]: 28.09% | Split Luciferase Assay Z-score Set 1 ([2]; CC_NCI screening, LCA): -7.00 | Split Luciferase Assay Z-score Set 2 ([2]; CC_NCI screening, LCA): -5.85 | Split Luciferase Assay %Lum Avg ([2]; CC_NCI screening): 20.73%

CCc1cc(Nc2nccc(-c3c(-c4ccc(OC)c(C(=O)Nc5c(F)cccc5F)c4)nc4ccccn34)n2)c(OC)cc1N1CCC(N2CCN(S(C)(=O)=O)CC2)CC1 [GSK1904529A]
Luciferase Assay % Lum [1]: 86.97% | Luciferase Assay Z-score [1]: -1.67 | Toxicity Assay % Fluor (Clone V cells): 100.76% | Toxicity Assay Z-score (Clone V cells): 0.11 | Split Luciferase Assay % Lum Set 1 [2, 3]: 116.65% | Split Luciferase Assay %Lum Set 2 [2, 3]: 92.59% | Split Luciferase Assay Z-score Set 1 ([2]; CC_NCI screening, LCA): 1.35 | Split Luciferase Assay Z-score Set 2 ([2]; CC_NCI screening, LCA): -0.60 | Split Luciferase Assay %Lum Avg ([2]; CC_NCI screening): 104.62%
